Reference: patent US6989371B1, “Bombesin analogs for treatment of cancer” (Dabur Research Foundation, priority 1996, dated 2006)
Non-standard residues stand in square brackets, D forms with d. Residues, ends and D or L forms follow the SMILES beside them. *: point of attachment. Octanoyl = CCCCCCCC(=O)*; Aib = CC(C)(N)C(=O)O

What was measured:
Experiment in all cases: MTT cytotoxicity assay, 48 hours (Example 14)
HuTu80 (Stomach) = format: cell-based, human
Description: (§1) The cytotoxic effect of peptide sequences SEQ ID NO: 9, SEQ ID NO: 10, SEQ ID NO: 11 and SEQ ID NO: 12, were studied by MTT assay which is based on the principle of uptake of MTT[3-[4,5-dimethylthiazol-2-yl]-2,5-diphenyl tetrazolium bromide], a tetrazolium salt by the metabolically active cells where it is metabolized by active mitochondria into a blue colored formazan product which can be read spectrophotometrically. Tumor cells KB (oral squamous). HuTu80 (Stomach), PTC and SW620 (colon), U87MG (Glioblastoma), HBL 100. (Breast), HeP2 (laryngeal) and L132 (Lung) were incubated with the peptide analogs for 48 hours at 37° C. in a 96-well culture plate, followed by the addition of 100 μl MTT and further incubation of 1 hour. The formazon crystals formed inside the cells were dissolved with a detergent comprising 10% Sodium dodecyl sulfate and 0.01 N HCl and optical density read on a multiscan ELISA reader. The optical density was directly proportional to the number of proliferating and metabolically active cells.

KB (oral squamous) = format: cell-based, human
Description: as §1

HBL 100 (Breast) = format: cell-based, human
Description: as §1

SW620 (colon) = format: cell-based, human
Description: as §1

PTC (colon) = format: cell-based, human
Description: as §1

HeP2 (laryngeal) = format: cell-based
Description: as §1

L132 (Lung) = format: cell-based
Description: as §1

U87MG (Glioblastoma) = format: cell-based
Description: as §1

## CCCCCCCC(=O)N[C@H](Cc1ccccc1)C(=O)N[C@@H](CCC(N)=O)C(=O)N[C@@H](Cc1c[nH]c2ccccc12)C(=O)N[C@@H](C)C(=O)N[C@H](C(=O)NC(C)(C)C(=O)N[C@@H](Cc1c[nH]cn1)C(=O)N[C@@H](CC(C)C)C(N)=O)C(C)C [SEQ ID: 12, Octanoyl-D-Phe-Gln-Trp-Ala-Val-Aib-His-Leu-NH2] (Octanoyl-[dF]QWAV[Aib]HL-NH2)
HuTu80 (Stomach); HuTu80, 10 pM
  Percentage cytotoxicity: 8.3 ± 1.1%
HuTu80 (Stomach); HuTu80, 100 pM
  Percentage cytotoxicity: 13.0 ± 0.7%
HuTu80 (Stomach); HuTu80, 1 nM
  Percentage cytotoxicity: 33.1 ± 4.8%
HuTu80 (Stomach); HuTu80, 10 nM
  Percentage cytotoxicity: 23.4 ± 0.5%
HuTu80 (Stomach); HuTu80, 100 nM
  Percentage cytotoxicity: 21.8 ± 2.1%
HuTu80 (Stomach); HuTu80, 1 μM
  Percentage cytotoxicity: 20.0 ± 3.9%
KB (oral squamous); 10 pM
  Percentage cytotoxicity: 19.3 ± 2.9%
KB (oral squamous); 100 pM
  Percentage cytotoxicity: 19.4 ± 2.9%
KB (oral squamous); 1 nM
  Percentage cytotoxicity: 26.6 ± 4.9%
KB (oral squamous); 10 nM
  Percentage cytotoxicity: 18.6 ± 2.1%
KB (oral squamous); 100 nM
  Percentage cytotoxicity: 11.1 ± 3.1%
KB (oral squamous); 1 μM
  Percentage cytotoxicity: 12.4 ± 1.2%
HBL 100 (Breast); HBL100, 10 pM
  Percentage cytotoxicity: 29.0 ± 3.8%
HBL 100 (Breast); HBL100, 100 pM
  Percentage cytotoxicity: 34.7 ± 2.8%
HBL 100 (Breast); HBL100, 1 nM
  Percentage cytotoxicity: 29.6 ± 0.4%
HBL 100 (Breast); HBL100, 10 nM
  Percentage cytotoxicity: 27.7 ± 1.5%
HBL 100 (Breast); HBL100, 100 nM
  Percentage cytotoxicity: 23.6 ± 2.7%
HBL 100 (Breast); HBL100, 1 μM
  Percentage cytotoxicity: 11.8 ± 1.1%
SW620 (colon); SW620, 10 pM
  Percentage cytotoxicity: 34.8 ± 0.4%
SW620 (colon); SW620, 100 pM
  Percentage cytotoxicity: 38.4 ± 2.8%
SW620 (colon); SW620, 1 nM
  Percentage cytotoxicity: 32.2 ± 2.6%
SW620 (colon); SW620, 10 nM
  Percentage cytotoxicity: 36.1 ± 1.9%
SW620 (colon); SW620, 100 nM
  Percentage cytotoxicity: 25.3 ± 0.6%
SW620 (colon); SW620, 1 μM
  Percentage cytotoxicity: 22.6 ± 1.1%
PTC (colon); 10 pM
  Percentage cytotoxicity: 19.5 ± 0.8%
PTC (colon); 100 pM
  Percentage cytotoxicity: 18.6 ± 2.4%
PTC (colon); 1 nM
  Percentage cytotoxicity: 30.1 ± 4.1%
PTC (colon); 10 nM
  Percentage cytotoxicity: 20.7 ± 3.8%
PTC (colon); 100 nM
  Percentage cytotoxicity: 16.1 ± 2.5%
PTC (colon); 1 μM
  Percentage cytotoxicity: 14.4 ± 2.7%
HeP2 (laryngeal); HeP2, 10 pM
  Percentage cytotoxicity: 10.0 ± 0.0%
HeP2 (laryngeal); HeP2, 100 pM
  Percentage cytotoxicity: 24.4 ± 0.1%
HeP2 (laryngeal); HeP2, 1 nM
  Percentage cytotoxicity: 28.9 ± 0.5%
HeP2 (laryngeal); HeP2, 10 nM
  Percentage cytotoxicity: 29.2 ± 1.1%
HeP2 (laryngeal); HeP2, 100 nM
  Percentage cytotoxicity: 25.6 ± 0.4%
HeP2 (laryngeal); HeP2, 1 μM
  Percentage cytotoxicity: 28.7 ± 0.8%
L132 (Lung); L132, 10 pM
  Percentage cytotoxicity: 0.0 ± 0.0%
L132 (Lung); L132, 100 pM
  Percentage cytotoxicity: 23.1 ± 0.7%
L132 (Lung); L132, 1 nM
  Percentage cytotoxicity: 26.7 ± 0.4%
L132 (Lung); L132, 10 nM
  Percentage cytotoxicity: 26.4 ± 0.3%
L132 (Lung); L132, 100 nM
  Percentage cytotoxicity: 22.0 ± 0.1%
L132 (Lung); L132, 1 μM
  Percentage cytotoxicity: 22.2 ± 0.2%
U87MG (Glioblastoma); 10 pM
  Percentage cytotoxicity: 13.1 ± 2.2%
U87MG (Glioblastoma); 100 pM
  Percentage cytotoxicity: 22.1 ± 3.8%
U87MG (Glioblastoma); 1 nM
  Percentage cytotoxicity: 28.3 ± 1.9%
U87MG (Glioblastoma); 10 nM
  Percentage cytotoxicity: 27.5 ± 2.9%
U87MG (Glioblastoma); 100 nM
  Percentage cytotoxicity: 13.1 ± 2.3%
U87MG (Glioblastoma); 1 μM
  Percentage cytotoxicity: 15.4 ± 3.1%
